The values below come from ChEMBL document CHEMBL5131564, “Discovery of Potent and Selective Receptor-Interacting Serine/Threonine Protein Kinase 2 (RIPK2) Inhibitors for the Treatment of Inflammatory Bowel Diseases (IBDs)” (J Med Chem, 2022).

The test system of series [1] is Mus musculus. In words: Anti-inflammatory activity against DSS-induced acute ulcerative colitis C57BL/6 mouse model assessed as recovery of weight loss at 20 mg/kg, po for 6 consecutive days. It counts as functional, organism-based.
In series [2] the test system is RAW264.7. The series can be described thus: Cytotoxicity against mouse RAW264.7 cells at 62.5 to 250 nM in presence of NOD measured after 24 hrs by propidium iodide staining based flow cytometry. It counts as toxicity, cell-based. To be noted: raw264.7, 24 h, 0.25 µM, dose 62.5-250 nM. In general terms: A flow cytometer gives signals particle by particle.
In series [3] the target is Serine/threonine-protein kinase SIK1 (Homo sapiens, UniProt P57059). In words: Inhibition of human SIK by kinase assay.
Chain of Serine/threonine-protein kinase SIK1 (P57059 whole entry): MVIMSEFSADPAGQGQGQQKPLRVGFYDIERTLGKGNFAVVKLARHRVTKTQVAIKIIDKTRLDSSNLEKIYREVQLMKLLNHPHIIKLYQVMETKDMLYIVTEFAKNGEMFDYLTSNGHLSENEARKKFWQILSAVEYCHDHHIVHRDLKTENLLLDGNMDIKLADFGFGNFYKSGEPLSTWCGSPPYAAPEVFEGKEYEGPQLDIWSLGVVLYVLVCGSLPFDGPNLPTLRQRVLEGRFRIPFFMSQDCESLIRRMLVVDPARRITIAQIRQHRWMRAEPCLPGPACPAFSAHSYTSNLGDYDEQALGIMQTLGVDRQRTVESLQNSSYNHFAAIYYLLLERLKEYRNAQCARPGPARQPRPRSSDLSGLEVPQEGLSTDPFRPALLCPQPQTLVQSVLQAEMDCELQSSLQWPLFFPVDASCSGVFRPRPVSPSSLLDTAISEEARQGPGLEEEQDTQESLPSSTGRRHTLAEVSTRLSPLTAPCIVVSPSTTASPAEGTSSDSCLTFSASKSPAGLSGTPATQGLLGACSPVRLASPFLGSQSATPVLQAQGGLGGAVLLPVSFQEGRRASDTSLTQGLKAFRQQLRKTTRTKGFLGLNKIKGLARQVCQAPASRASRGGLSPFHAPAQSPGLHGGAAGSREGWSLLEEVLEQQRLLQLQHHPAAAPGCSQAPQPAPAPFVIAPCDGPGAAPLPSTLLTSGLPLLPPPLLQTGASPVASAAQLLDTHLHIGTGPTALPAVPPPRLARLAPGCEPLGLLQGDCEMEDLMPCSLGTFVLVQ
Series [4] concerns the target Mast/stem cell growth factor receptor Kit (Homo sapiens, UniProt P10721). In words: Inhibition of human KIT by kinase assay.
Series [5] deals with T1, Receptor-type tyrosine-protein kinase FLT3 (Homo sapiens, UniProt P36888).
T1 sequence (P36888 whole entry): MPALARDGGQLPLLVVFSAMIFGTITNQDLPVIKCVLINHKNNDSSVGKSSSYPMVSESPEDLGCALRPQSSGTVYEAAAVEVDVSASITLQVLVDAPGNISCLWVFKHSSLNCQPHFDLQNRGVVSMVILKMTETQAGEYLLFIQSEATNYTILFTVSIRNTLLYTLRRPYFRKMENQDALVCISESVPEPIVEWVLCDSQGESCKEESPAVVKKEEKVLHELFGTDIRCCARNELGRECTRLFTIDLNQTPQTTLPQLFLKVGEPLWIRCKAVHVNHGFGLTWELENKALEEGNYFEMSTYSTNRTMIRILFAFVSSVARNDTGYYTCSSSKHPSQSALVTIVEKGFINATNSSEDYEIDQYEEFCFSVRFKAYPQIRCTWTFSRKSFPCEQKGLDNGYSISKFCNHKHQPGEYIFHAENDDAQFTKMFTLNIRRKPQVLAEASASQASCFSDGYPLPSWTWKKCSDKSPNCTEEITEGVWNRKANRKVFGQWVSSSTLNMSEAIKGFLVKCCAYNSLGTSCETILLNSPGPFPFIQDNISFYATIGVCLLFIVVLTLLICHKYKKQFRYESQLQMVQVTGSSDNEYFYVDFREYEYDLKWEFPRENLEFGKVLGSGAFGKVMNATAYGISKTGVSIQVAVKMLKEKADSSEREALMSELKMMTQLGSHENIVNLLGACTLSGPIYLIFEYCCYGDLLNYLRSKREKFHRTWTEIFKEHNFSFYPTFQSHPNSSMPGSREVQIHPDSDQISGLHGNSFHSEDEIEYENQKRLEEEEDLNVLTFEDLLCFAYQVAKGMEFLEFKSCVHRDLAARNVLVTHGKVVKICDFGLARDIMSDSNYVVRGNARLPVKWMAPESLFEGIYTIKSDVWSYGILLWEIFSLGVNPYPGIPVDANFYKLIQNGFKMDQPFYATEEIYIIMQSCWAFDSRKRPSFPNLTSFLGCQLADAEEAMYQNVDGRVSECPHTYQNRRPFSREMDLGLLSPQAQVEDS
In words: Inhibition of human FLT3 by kinase assay.

Series [6] concerns the target T2, Receptor-interacting serine/threonine-protein kinase 1 (Homo sapiens, UniProt Q13546).
T2 sequence (Q13546 whole entry): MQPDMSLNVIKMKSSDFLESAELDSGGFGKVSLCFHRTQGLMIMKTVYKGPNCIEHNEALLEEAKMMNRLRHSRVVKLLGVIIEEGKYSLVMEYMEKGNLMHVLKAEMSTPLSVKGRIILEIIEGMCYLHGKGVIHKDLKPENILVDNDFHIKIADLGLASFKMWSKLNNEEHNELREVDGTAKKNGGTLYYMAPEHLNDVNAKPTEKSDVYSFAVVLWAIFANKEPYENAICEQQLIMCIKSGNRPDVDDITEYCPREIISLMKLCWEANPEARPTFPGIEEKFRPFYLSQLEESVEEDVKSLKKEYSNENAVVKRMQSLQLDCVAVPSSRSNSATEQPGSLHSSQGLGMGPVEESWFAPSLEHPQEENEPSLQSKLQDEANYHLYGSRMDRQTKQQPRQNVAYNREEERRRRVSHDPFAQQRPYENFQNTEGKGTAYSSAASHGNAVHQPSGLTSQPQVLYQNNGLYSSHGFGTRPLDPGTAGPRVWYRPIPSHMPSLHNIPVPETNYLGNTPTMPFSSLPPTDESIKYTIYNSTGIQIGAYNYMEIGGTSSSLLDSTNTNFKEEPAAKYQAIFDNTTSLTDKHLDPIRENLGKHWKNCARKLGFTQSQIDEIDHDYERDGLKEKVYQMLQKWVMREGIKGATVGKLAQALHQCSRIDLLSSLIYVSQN
The series can be described thus: Inhibition of human RIPK1 by kinase assay.

The target of series [7] is Receptor-interacting serine/threonine-protein kinase 2 (Homo sapiens, UniProt O43353). In words: Binding affinity to human RIPK2 in HEK293 cells. It counts as cell-based.
Chain of Receptor-interacting serine/threonine-protein kinase 2 (O43353 whole entry): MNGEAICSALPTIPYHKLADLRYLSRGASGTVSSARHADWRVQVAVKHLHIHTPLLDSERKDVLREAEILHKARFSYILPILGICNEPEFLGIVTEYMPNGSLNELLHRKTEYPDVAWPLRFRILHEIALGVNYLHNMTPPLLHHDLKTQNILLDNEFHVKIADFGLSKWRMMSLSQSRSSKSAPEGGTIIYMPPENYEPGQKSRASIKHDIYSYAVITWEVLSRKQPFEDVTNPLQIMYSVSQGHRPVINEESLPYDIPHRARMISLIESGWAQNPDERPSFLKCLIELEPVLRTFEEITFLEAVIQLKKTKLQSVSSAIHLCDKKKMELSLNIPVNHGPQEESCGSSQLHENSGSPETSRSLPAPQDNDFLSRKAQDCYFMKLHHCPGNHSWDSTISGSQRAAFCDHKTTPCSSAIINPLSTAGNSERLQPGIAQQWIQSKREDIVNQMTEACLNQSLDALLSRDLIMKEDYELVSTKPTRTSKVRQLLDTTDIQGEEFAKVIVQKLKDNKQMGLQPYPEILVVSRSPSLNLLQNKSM
Series [8] has as its target T3, Dual serine/threonine and tyrosine protein kinase (Homo sapiens, UniProt Q6XUX3).
T3 sequence (Q6XUX3 whole entry): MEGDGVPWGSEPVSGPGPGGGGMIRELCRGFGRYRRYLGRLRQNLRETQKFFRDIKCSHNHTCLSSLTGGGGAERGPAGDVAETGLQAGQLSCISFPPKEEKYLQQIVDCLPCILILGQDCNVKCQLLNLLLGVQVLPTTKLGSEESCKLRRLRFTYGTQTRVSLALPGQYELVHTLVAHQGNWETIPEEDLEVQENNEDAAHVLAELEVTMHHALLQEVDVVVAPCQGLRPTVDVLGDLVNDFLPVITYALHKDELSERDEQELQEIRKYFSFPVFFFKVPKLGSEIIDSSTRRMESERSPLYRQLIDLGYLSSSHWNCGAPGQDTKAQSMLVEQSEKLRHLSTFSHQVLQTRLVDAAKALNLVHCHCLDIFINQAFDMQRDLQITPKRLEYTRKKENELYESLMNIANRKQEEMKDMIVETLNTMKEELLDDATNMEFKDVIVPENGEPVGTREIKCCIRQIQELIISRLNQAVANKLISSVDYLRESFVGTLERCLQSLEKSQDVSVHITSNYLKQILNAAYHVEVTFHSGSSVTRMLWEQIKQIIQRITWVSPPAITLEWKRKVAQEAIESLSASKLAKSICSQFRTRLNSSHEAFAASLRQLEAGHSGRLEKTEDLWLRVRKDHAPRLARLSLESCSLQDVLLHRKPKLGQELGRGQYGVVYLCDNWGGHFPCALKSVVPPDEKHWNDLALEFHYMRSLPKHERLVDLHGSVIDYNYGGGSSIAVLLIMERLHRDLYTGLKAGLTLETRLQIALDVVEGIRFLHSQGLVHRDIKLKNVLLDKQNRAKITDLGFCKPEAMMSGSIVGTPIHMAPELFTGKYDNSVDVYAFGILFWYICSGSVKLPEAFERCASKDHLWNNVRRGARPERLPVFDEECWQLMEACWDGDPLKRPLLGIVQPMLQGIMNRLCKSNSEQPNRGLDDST
The series can be described thus: Binding affinity to human RIPK5.

A short description of series [9]: Clearance in Balb/C mouse plasma at 10 mg/kg, po measured upto 48 hrs by LC-MS/MS analysis. The series is classed as ADME, organism-based.
The nature of series [10]: Oral bioavailability in Balb/C mouse at 10 mg/kg measured upto 48 hrs by LC-MS/MS analysis. It counts as ADME, organism-based. Particulars: in vivo.

Activity calls are given as the source filed them. The calls are words filed in the database; no cut-off is given here.

Chain of Mast/stem cell growth factor receptor Kit (P10721 whole entry): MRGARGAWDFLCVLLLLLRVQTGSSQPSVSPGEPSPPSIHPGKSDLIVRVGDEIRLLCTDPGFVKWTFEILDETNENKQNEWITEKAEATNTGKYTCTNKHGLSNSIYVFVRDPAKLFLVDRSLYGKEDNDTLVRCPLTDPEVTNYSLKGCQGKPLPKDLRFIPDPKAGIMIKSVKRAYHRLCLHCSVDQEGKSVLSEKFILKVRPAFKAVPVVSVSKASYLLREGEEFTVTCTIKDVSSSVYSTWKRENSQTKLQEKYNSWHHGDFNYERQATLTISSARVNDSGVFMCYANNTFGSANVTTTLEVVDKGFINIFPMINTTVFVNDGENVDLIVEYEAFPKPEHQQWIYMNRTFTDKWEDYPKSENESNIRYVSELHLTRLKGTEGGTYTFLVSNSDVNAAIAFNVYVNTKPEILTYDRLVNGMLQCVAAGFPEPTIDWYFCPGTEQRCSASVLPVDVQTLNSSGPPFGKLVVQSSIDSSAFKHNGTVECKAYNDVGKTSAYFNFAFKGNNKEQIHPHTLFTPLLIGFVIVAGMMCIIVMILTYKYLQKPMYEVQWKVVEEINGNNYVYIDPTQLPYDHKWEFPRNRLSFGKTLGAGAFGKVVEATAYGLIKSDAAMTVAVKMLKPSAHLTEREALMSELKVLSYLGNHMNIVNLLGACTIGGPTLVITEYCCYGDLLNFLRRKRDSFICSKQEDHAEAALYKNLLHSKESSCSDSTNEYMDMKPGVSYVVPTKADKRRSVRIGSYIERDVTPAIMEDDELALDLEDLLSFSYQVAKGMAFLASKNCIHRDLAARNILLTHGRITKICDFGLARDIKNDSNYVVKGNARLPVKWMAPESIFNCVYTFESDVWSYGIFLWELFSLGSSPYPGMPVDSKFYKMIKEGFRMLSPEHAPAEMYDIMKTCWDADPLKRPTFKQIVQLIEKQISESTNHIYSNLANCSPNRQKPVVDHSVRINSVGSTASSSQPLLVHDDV

As usually defined, the IC50 is the concentration that inhibits the measured activity by half. Low values mean inhibition by little substance, high ones a need for much substance. A word on the Kd: it is the concentration at which binding is half-saturated. Lower therefore signals a tighter complex. A word on the CL/F: it is the apparent clearance, not corrected for the fraction that reaches the circulation. In general, bioavailability refers to the share of a dose that reaches the circulation, judged against a reference dose that is usually intravenous. As to `Cc1ccc(-c2cn([C@H]3CC[C@@H](N)CC3)c3ncnc(N)c23)c(F)c1`, the result in series [1] was Active. Besides, the Activity entry in [2] is given as “Non-Toxic”. The IC50 was 89 nM in [3], 1510 nM in series [4], 4780 nM in series [5] and above 30000 nM in series [6]. Besides, the Kd in series [7] was found to be 0.28 nM; in series [8] it was 670 nM. This compound had a CL/F in [9] of 1130 mL/min/kg. The compound also registered a bioavailability in [10] of 15.1%.
